The values that follow come from patent US20180169047A1, “AMINO ACID COMPOSITIONS AND METHODS FOR THE TREATMENT OF MUSCLE DISEASES AND DISORDERS” (AXCELLA HEALTH INC., priority 2016, published 2018).

Molecules are shown by their SMILES.

One assay concerns mTORC1. Kind of assay: mTORC1 activity assay: rpS6 phosphorylation (AlphaScreen SureFire) in C2C12 myotubes. Type of assay: cell-based, mouse. Set-up: key to mTOR: statistically significant assay result: statistically significant assay results between 2X and 5X doses; ns - not significant; NT - not tested. The settings on record: for Avg fold change of intracellular rpS6 phosphorylation (P-rpS6) compared to untreated cells: C2C12 myotubes, 30 min, normalized to total protein; for mTOR: statistically significant assay result: between 2X and 5X doses, compared to untreated control. An excerpt:
Metabolism is controlled by the mTORC1 signaling complex, an essential protein kinase that regulates cellular processes such as protein synthesis and autophagy. A number of distinct signals control mTORC1 activity, including amino acids and growth factors like insulin, and proper regulation is necessary for the maintenance of muscle mass. Dysregulation of mTORC1 activity is associated with muscle wasting (atrophy) in many diseases, and conversely, addition of muscle mass (hypertrophy) requires protein synthesis-inducing mTORC1 signaling. The ability of different amino acids to induce mTORC1 signaling in myotubes was assessed using an alpha-elisa screen for phosphorylated ribosomal protein S6 (P-rpS6), an important substrate downstream of mTORC1 involved in promoting protein synthesis.
In this example, murine muscle cells were incubated with a composition including amino acids and assessed for mTORC1 activation. C2C12, mouse muscle cells, were obtained from ATCC (CRL-1772, Manassas, VA). The cells were seeded on day 0 at 1.0E4 cells per well in 96-well TC-treated microplates (Corning, Corning, NY) in Dulbecco's Modified Eagle Medium (DMEM, Corning) supplemented with 10% fetal bovine serum (Corning) and 0.2% Primocin (InVivoGen, San Diego, Calif.) and incubated for 48 hours at 37° C., 5% CO2. On day 2, the medium was changed to DMEM (Corning) supplemented with 2% horse serum (Horse Serum, New Zealand origin, ThermoFisher, Waltham, MA) and 0.2% Primocin. On day 5, the medium was replaced with fresh DMEM supplemented with 2% horse serum and 0.2% Primocin.
On day 7, the DMEM supplemented with 2% horse serum and 0.2% Primocin was replaced with amino acid free DMEM (US Biologicals, Salem, Mass.) containing a defined custom amino acid concentration based on 0.5× the mean physiological concentrations in blood based on values published in the Human Metabolome Database (HMDB (Wishart DS, Tzur D, Knox C, et al., HMDB: the Human Metabolome Database. Nucleic Acids Res. 2007 January; 35 (Database issue):D521-6. 17202168), with 25 mM Glucose, 1 mM Sodium Pyruvate and incubated for 2 hours at 37° C., 5% CO2. Next, the cell medium was replaced with amino acid free DMEM (US Biologicals, Salem, Mass.) containing a defined custom amino acid concentration based on 0.5× the mean physiological concentrations in blood based on values published in the HMDB and a dose curve of defined amino acid compositions listed in Table 5 at 4 doses relative to plasma levels (1×, 2×, 5× and 10×; as defined by mean amino acid concentrations in the HMDB database). Combinations containing N-acetylcysteine were dosed with 0.2 mM. Cells were treated for 30 min at 37° C., 5% CO2. After treatment, the cells were washed lx in 100uL cold phosphate-buffered saline 1×, pH 7.2 (PBS, ThermoFisher). For the detection of the intracellular rpS6 phosphorylation, the AlphaScreen SureFire cellular kinase assay kit (rpS6 ([…]) and the AlphaScreen protein A kit (PerkinElmer, Waltham, Mass.) were used.
Data are presented as fold change of intracellular rpS6 phosphorylation in C2C12 myotubes normalized to the total protein amount compared to untreated cells. […] Statistical significance was determined by one-way ANOVA for each composition dose relative to untreated.

Another assay deals with C2C12 myotubes. Briefly: Myotube growth assay: myotube area in C2C12 myotubes. In kind it is cell-based, murine. Further details: key to GROWTH: statistically significant assay result: statistically significant assay results between 2X and 5X doses; ns - not significant; NT - not tested. The settings on record: for myotube growth dose response, Avg myotube area normalized to nuclear count: untreated = 1.000; for GROWTH: statistically significant assay result: between 2X and 5X doses, compared to untreated control. An excerpt:
Myotubes are multi-nucleated and elongated cells that express master regulators of skeletal muscle gene expression including MyoD and Myogenin. Myotubes are formed by differentiating myoblasts (muscle progenitor cells) for approximately 1 week. Once formed, myotubes size can be promoted (e.g. insulin) or inhibited (e.g. myostatin) with various molecules in order to assess effects on muscle size in vitro. C2C12 cells are commonly-used murine myogenic cells that upon differentiation form myotubes. C2C12 myotubes were used to test whether specific amino acid compositions can promote growth in vitro.
C2C12 murine myoblast cells (ATCC CRL-1772) were seeded on day 0 at 1.0E4 cells per well in collagen I coated 96-well optical polymer microplates (ThermoFisher) in Dulbecco's Modified Eagle Medium (DMEM, Corning) supplemented with 10% heat inactivated fetal bovine serum (HI-FBS, Atlanta Biologicals) and 0.2% Primocin (InVivoGen) and incubated overnight at 37° C., 5% CO2. On day 1, media was washed and differentiation media (DMEM supplemented with 2% horse serum) was added to the cells and fresh differentiation media was also applied on Day 3. On Day 6, cells were washed with amino acid-free DMEM and then treated with basal growth media containing 0.2% dialyzed FBS and all amino acids at 0.25× concentrations found in plasma based on values reported in the Human Metabolome Database (HMDB).
Fresh growth media and AA treatments were applied a second time on Day 8. On day 10, media was removed and cells were incubated in pre-warmed 4% Paraformaldehyde in PBS for 12 mins at room temperature and then washed 3× in PBS. Immunostaining with MHC (MF-20, University of Iowa Developmental Hybridoma Studies bank) was performed according to cell signaling general immunofluorescence protocol. Briefly, fixed cells were incubated in blocking buffer (5% normal goat serum 0.3% triton PBS) for 30-60 minutes, and then incubated overnight at 4° C. in primary antibody 1:1000 in antibody dilution buffer (1% BSA 0.3% triton in PBS). The next day the plate was equilibrated to room temperature, washed 3 times for 5 minutes in room temperature PBS and then with secondary antibody (Fab′ anti-mouse Alexa488, 1:2000) in antibody dilution buffer for 1-2 hours. Cells were washed 2 times for 5 minutes, incubated in Hoechst stain (Mol Probes 1:4000) for 10 minutes at room temperature, and washed an additional 2 times five minutes each in PBS. Molecular device HCS was used for image acquisition and analysis. Imaging was performed with a 10× wide field objective at both GFP and UV channels (FITC and DAPI) and analysis was performed using a modified version of the angiogenesis module in the MetaExpress Software measuring average total myotube area, myotube breadth, total nuclear counts, fused nuclear counts, and unfused nuclear counts.

Assay [1] relates to C2C12 murine myoblast cells. Kind of assay: Myogenesis assay: myotube differentiation of C2C12 myoblasts, MHC immunostaining. Further details: key to MYOGENESIS: statistically significant assay result: statistically significant assay results between 2X and 5X doses; ns - not significant; NT - not tested. In kind it is cell-based. The settings on record: for myogenesis dose response, Avg fold-change to untreated: C2C12 myoblasts differentiated 4 days. An excerpt: Myogenesis is the process of forming skeletal muscle fibers (myofibers) which contain the minimal contractile units (sarcomeres) responsible for force transduction and load bearing in higher eukaryotes. During development single nucleated myogenic cells fuse, differentiate, and induce expression of the cytoskeletal complexes required for muscle contraction. A highly similar process is induced in response to muscle injury where satellite cells, or skeletal muscle stem cells, are activated, differentiate and fuse with damaged myofibers, thereby contributing myonuclei and supporting muscle repair. C2C12 cells are murine myogenic cells that, upon differentiation, fuse to form multi-nucleated myotubes (primitive myofibers) that express master regulators of muscle-specific gene expression, for example myosin heavy chain, a critical component of sarcomeres. C2C12 cells were selected as a model of myogenesis and used to test whether specific amino acid compositions would promote formation of myotubes and expression of the myotube-specific marker myosin heavy chain.
C2C12 murine myoblast cells were obtained from ATCC (CRL-1772) and seeded on day 0 at 1.0E4 cells per well in collagen I coated 96-well optical polymer microplates (ThermoFisher) in Dulbecco's Modified Eagle Medium (DMEM, Corning) supplemented with 10% heat inactivated fetal bovine serum (HI-FBS, Atlanta Biologicals) and 0.2% Primocin (InVivoGen) and incubated overnight at 37° C., 5% CO2. […] Cells were differentiated for 4 days at 37° C., 5% CO2 with a media replenishment and an additional amino acid composition or control treatment on Day 3. On day 5, the media was removed and cells were incubated in pre-warmed 4% Paraformaldehyde in PBS for 12 mins at room temperature and then washed 3× in PBS.
Immunostaining with MHC (MF-20, University of Iowa Developmental Hybridoma Studies bank) was performed according to cell signaling general immunofluorescence protocol. Briefly, fixed cells were incubated in blocking buffer (5% normal goat serum 0.3% triton PBS) for 30 to 60 minutes, and then incubated overnight at 4° C. in primary antibody 1:1000 in antibody dilution buffer (1% BSA 0.3% triton in PBS). The next day the plate was equilibrated to room temperature, washed 3 times for 5 minutes in room temperature PBS and then with secondary antibody (Fab' anti-mouse Alexa488, 1:2000) in antibody dilution buffer for 1-2 hours. Cells were washed two times for 5 minutes, incubated in Hoechst stain (Mol Probes 1:4000) for 10 minutes at room temperature, and washed an additional two times for five minutes each in PBS. Molecular device HCS was used for image acquisition and analysis. Imaging was performed with a 10× wide field objective at both GFP and UV channels (FITC and DAPI) and analysis was performed using a custom module in the MetaExpress Software measuring average FITC intensity, integrated FITC intensity, and nuclear counts.
The data is the average of 3 independent experiments.

Where [2] appears, read: dose 1X relative to plasma levels.
Setting [3] is: dose 2X relative to plasma levels.
Setting [4] is: dose 5X relative to plasma levels.
Where [5] appears, read: dose 10X relative to plasma levels.
[6] abbreviates: C2C12 myotubes, dose 1.25X relative to plasma levels.
The mark [7] stands for this setting: C2C12 myotubes, dose 2.5X relative to plasma levels.
Setting [8] is: C2C12 myotubes, dose 5X relative to plasma levels.
Where [9] appears, read: C2C12 myotubes, dose 10X relative to plasma levels.

As to `CC(=O)N[C@@H](CS)C(=O)O` [Nac, N-acetylcysteine], the “Avg fold change of intracellular rpS6 phosphorylation (P-rpS6) compared to untreated cells” value in the assay on mTORC1 (setting [2]) stood at 0.9198 fold change; in the assay on mTORC1 (setting [3]) it was 0.8626 fold change; in the assay with mTORC1 (setting [4]), 0.8741 fold change; with mTORC1 (setting [5]), 0.9485 fold change. Further, the “mTOR: statistically significant assay result” value with mTORC1 is on record as “ns”. Also, the “myotube growth dose response, Avg myotube area normalized to nuclear count” value with C2C12 myotubes (setting [6]) turned out to be 1.121; in the assay with C2C12 myotubes (setting [7]), 1.036; in the assay on C2C12 myotubes (setting [8]), 1.153; in the assay with C2C12 myotubes (setting [9]) it was 1.267. Moreover, the “GROWTH: statistically significant assay result” value with C2C12 myotubes is reported as “ns”.

As for `NC(=O)CC[C@H](N)C(=O)O` [Q, glutamine], the “Avg fold change of intracellular rpS6 phosphorylation (P-rpS6) compared to untreated cells” value in the assay with mTORC1 (setting [2]) is given as 1.052 fold change; in the assay with mTORC1 (setting [3]), 0.9176 fold change; in the assay with mTORC1 (setting [4]), 0.8748 fold change; in the assay on mTORC1 (setting [5]), 0.8139 fold change. The “mTOR: statistically significant assay result” value in the assay on mTORC1 is “ns”. In addition, in the assay on C2C12 myotubes (C2C12 myotubes, across two experiments), the “area of myotubes in the culture well (in words)” value is “no effect or were inhibitory”. For the same molecule, the “myotube growth dose response, Avg myotube area normalized to nuclear count” value in the assay on C2C12 myotubes (setting [6]) amounted to 1.235; in the assay with C2C12 myotubes (setting [7]), 1.202; in the assay on C2C12 myotubes (setting [8]) it was 1.075; in the assay on C2C12 myotubes (setting [9]), 1.077. Moreover, in the assay with C2C12 myotubes, the “GROWTH: statistically significant assay result” value is on record as “ns”. Besides, the “myogenesis dose response, Avg fold-change to untreated” value was 1.127 fold-change in assay [1] (dose 1.25X relative to HMDB plasma levels), 1.066 fold-change in assay [1] (dose 2.5X relative to HMDB plasma levels), 1.087 fold-change in assay [1] (dose 5X relative to HMDB plasma levels) and 1.041 fold-change in assay [1] (dose 10X relative to HMDB plasma levels). Besides, the “MYOGENESIS: statistically significant assay result” value in assay [1] (between 2X and 5X doses, compared to untreated control) is listed as “ns”.
